# Biological target: T1, mGlyT-1b (Mus musculus, UniProt P28571)
# T1 construct: host or cells: Flp-in-CHO
# T1 sequence (P28571 1-651 isoform P28571-2): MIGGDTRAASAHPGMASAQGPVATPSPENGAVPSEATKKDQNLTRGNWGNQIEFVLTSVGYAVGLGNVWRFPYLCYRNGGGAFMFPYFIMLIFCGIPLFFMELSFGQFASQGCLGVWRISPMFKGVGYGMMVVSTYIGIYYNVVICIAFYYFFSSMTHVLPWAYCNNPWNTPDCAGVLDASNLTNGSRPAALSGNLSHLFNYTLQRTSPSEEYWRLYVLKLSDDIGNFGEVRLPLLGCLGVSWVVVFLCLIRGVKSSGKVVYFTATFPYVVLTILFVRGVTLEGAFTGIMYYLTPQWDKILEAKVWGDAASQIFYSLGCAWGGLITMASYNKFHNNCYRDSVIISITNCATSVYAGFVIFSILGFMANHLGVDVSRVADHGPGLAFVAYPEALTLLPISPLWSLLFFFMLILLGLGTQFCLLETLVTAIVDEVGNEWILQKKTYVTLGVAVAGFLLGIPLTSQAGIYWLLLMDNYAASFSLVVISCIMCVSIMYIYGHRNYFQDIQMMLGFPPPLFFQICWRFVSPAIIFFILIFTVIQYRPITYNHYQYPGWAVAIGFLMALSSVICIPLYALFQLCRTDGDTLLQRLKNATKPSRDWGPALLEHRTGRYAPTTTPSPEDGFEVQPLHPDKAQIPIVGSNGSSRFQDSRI
# Assay: Glycine uptake inhibition assay (mGlyT-1b)
# Type: cell-based
# Details: inhibition of [3H]-glycine uptake in Flp-in-CHO cells transfected with mGlyT-1b cDNA; 20 min preincubation at 22° C.; read-out: IC50 (μM) at GlyT-1
# Procedure: DMEM complete medium: Nutrient mixture F-12 (Gibco Life-technologies), fetal bovine serum (FBS) 5%, (Gibco life technologies), Penicillin/Streptomycin1% (Gibco life technologies), Hygromycin 0.6 mg/ml (Gibco life technologies), Glutamine 1 mM Gibco life technologies)
# Uptake buffer (UB): 150 mM NaCl, 10 mM Hepes-Tris, pH 7.4, 1 mM CaCl2, 2.5 mM KCl, 2.5 mM MgSO4, 10 mM (+) D-glucose.
# Flp-in™-CHO (Invitrogen Cat n^o R758-07) cells stably transfected with mGlyT1b cDNA.
# Glycine Uptake Inhibition Assay (mGlyT-1b)
# On day 1 mammalian cells, (Flp-in™-CHO), transfected with mGlyT-1b cDNA, were plated at the density of 40,000 cells/well in complete F-12 medium, without hygromycin in 96-well culture plates. On day 2, the medium was aspirated, and the cells were washed twice with uptake buffer (UB). The cells were then incubated for 20 min at 22° C. with either (i) no potential competitor, (ii) 10 mM non-radioactive glycine, (iii) a concentration of a potential inhibitor. A range of concentrations of the potential inhibitor was used to generate data for calculating the concentration of inhibitor resulting in 50% of the effect (e.g. IC50, the concentration of the competitor inhibiting glycine uptake of 50%). A solution was then immediately added containing [^3H]-glycine 60 nM (11-16 Ci/mmol) and 25 μM non-radioactive glycine. The plates were incubated with gentle shaking, and the reaction was stopped by aspiration of the mixture and washing (three times) with ice-cold UB. The cells were lysed with scintillation liquid, shaken 3 hours, and the radioactivity in the cells was counted using a scintillation counter.
row,IC50 [µM],Structure (SMILES)
1,0.038,"CS(=O)(=O)c1ccc(OCC2CCC2)c(C(=O)N2Cc3cnc(C(F)(F)F)cc3C2)c1 [Example 118, (2-Cyclobutyl-methoxy-5-methane-sulfonyl-phenyl)-(6-trifluoromethyl-1,3-dihydro-pyrrolo [3,4-c]pyridin-2-yl)-methanone]"
2,0.034,"C[C@H](Oc1ccc(S(C)(=O)=O)cc1C(=O)N1CCc2c(Br)cccc21)C(F)(F)F [Example 211, (4-Bromo-2,3-dihydro-indol-1-yl)-[5-methanesulfonyl-2-((S)-2,2,2-trifluoro-1-methyl-ethoxy)-phenyl]-methanone]"
3,0.036,"CCSc1cc2c(cc1Cl)CN(C(=O)c1cc(S(C)(=O)=O)ccc1O[C@H](C)C(F)(F)F)C2 [Example 59, (5-Chloro-6-ethylsulfanyl-1,3-dihydro-isoindol-2-yl)-[5-methanesulfonyl-2-((R)-2,2,2-trifluoro-1-methyl-ethoxy)-phenyl]-methanone]"
4,0.034,"Cc1cc2c(cc1Cl)CN(C(=O)c1cc(S(C)(=O)=O)ccc1O[C@H](C)C(F)(F)F)C2 [Example 49, (5-Chloro-6-methyl-1,3-dihydro-isoindol-2-yl)-[5-methanesulfonyl-2-((R)-2,2,2-trifluoro-1-methyl-ethoxy)-phenyl]-methanone]"
5,0.024,"CS(=O)(=O)c1ccc(OCC(F)(F)C(F)F)c(C(=O)N2Cc3cc(C(F)(F)F)cnc3C2)c1 [Example 158, [5-Methanesulfonyl-2-(2,2,3,3-tetrafluoro-propoxy)-phenyl]-(3-trifluoromethyl-5,7-dihydro-pyrrolo[3,4-b]pyridin-6-yl)-methanone]"
6,0.025,"CS(=O)(=O)c1ccc(OCC(F)(F)C(F)(F)F)c(C(=O)N2Cc3cc(C(F)(F)F)cnc3C2)c1 [Example 157, [5-Methanesulfonyl-2-(2,2,3,3,3-pentafluoro-propoxy)-phenyl]-(3-trifluoromethyl-5,7-dihydro-pyrrolo[3,4-b]pyridin-6-yl)-methanone]"
7,0.024,"C[C@H](Oc1ccc(S(C)(=O)=O)cc1C(=O)N1Cc2ccc(-c3ccc(F)cc3)nc2C1)C(F)(F)F [Example 382, [2-(4-Fluoro-phenyl)-5,7-dihydro-pyrrolo[3,4-b]pyridin-6-yl]-[5-methanesulfonyl-2-((S)-2,2,2-trifluoro-1-methyl-ethoxy)-phenyl]-methanone]"
8,0.037,"CCSc1cc2c(cc1C(F)(F)F)CN(C(=O)c1cc(S(C)(=O)=O)ccc1O[C@@H](C)C(F)(F)F)C2 [Example 217, (5-Ethylsulfanyl-6-trifluoromethyl-1,3-dihydro-isoindol-2-yl)-[5-methanesulfonyl-2-((S)-2,2,2-trifluoro-1-methyl-ethoxy)-phenyl]-methanone]"
9,0.047,"CS(=O)(=O)c1ccc(-c2ccc(F)c(F)c2)c(C(=O)N2Cc3cnc(C(F)(F)F)cc3C2)c1 [Example 146, (3′,4′-Difluoro-4-methanesulfonyl-biphenyl-2-yl)-(6-trifluoromethyl-1,3-dihydro-pyrrolo[3,4-c]pyridin-2-yl)-methanone]"
10,0.019,"Cc1cc2c(cc1Cl)CN(C(=O)c1cc(S(C)(=O)=O)ccc1O[C@@H](C)C(F)(F)F)C2 [Example 24, (5-Chloro-6-methyl-1,3-dihydro-isoindol-2-yl)-[5-methanesulfonyl-2-((S)-2,2,2-trifluoro-1-methyl-ethoxy)-phenyl]-methanone]"
11,0.03,"C[C@H](Oc1ccc(S(C)(=O)=O)cc1C(=O)N1Cc2ccc(OCC(F)(F)F)cc2C1)C(F)(F)F [Example 357, [5-Methanesulfonyl-2-((S)-2,2,2-trifluoro-1-methyl-ethoxy)-phenyl]-[5-(2,2,2-trifluoro-ethoxy)-1,3-dihydro-isoindol-2-yl]-methanone]"
12,0.047,"CS(=O)(=O)c1ccc(-c2ccc(F)cc2)c(C(=O)N2Cc3cnc(C(F)(F)F)cc3C2)c1 [Example 121, (4′-Fluoro-4-methanesulfonyl-biphenyl-2-yl)-(6-trifluoromethyl-1,3-dihydro-pyrrolo[3,4-c]pyridin-2-yl)-methanone]"
13,0.019,"CS(=O)(=O)c1ccc(-c2ccccc2)c(C(=O)N2CCc3c(C#N)cccc32)c1 [Example 204, 1-(4-Methanesulfonyl-biphenyl-2-carbonyl)-2,3-dihydro-1H-indole-4-carbonitrile]"
14,0.003,"Cc1cc(-c2ccc3c(c2)CN(C(=O)c2cc(S(C)(=O)=O)ccc2O[C@@H](C)C(F)(F)F)C3)ccn1 [Example 169, [5-Methanesulfonyl-2-((S)-2,2,2-trifluoro-1-methyl-ethoxy)-phenyl]-[5-(2-methyl-pyridin-4-yl)-1,3-dihydro-isoindol-2-yl]-methanone]"
15,0.034,Cc1cscc1-c1ccc2c(c1)CN(C(=O)c1cc(S(C)(=O)=O)ccc1O[C@@H](C)C(F)(F)F)C2 [Example 345]
16,0.041,"Cc1ccsc1-c1ccc2c(c1)CN(C(=O)c1cc(S(C)(=O)=O)ccc1O[C@@H](C)C(F)(F)F)C2 [Example 332, [5-Methanesulfonyl-2-(2,2,2-trifluoro-1-methyl-ethoxy)-phenyl]-[5-(3-methyl-thiophen-2-yl)-1,3-dihydro-isoindol-2-yl]-methanone]"
17,0.031,"COc1ccc2c(c1)CN(C(=O)c1cc(S(C)(=O)=O)ccc1OC(C)C)C2 [Example 74, (2-Isopropoxy-5-methanesulfonyl-phenyl)-(5-methoxy-1,3-dihydro-isoindol-2-yl)-methanone]"
18,0.022,"CS(=O)(=O)c1ccc(OCC2CCC2)c(C(=O)N2Cc3cc(Cl)c(N4CCOCC4)cc3C2)c1 [Example 249, (5-Chloro-6-morpho-lin-4-yl-1,3-dihydro-isoindol-2-yl)-(2-cyclobutylmethoxy-5-methanesulfonyl-phenyl)-methanone]"
19,0.006,"C[C@H](Oc1ccc(S(C)(=O)=O)cc1C(=O)N1Cc2cc(F)c(N3CCOCC3)cc2C1)C(F)(F)F [Example 371, (5-Fluoro-6-morpholin-4-yl-1,3-dihydro-isoindol-2-yl)-[5-methanesulfonyl-2-((S)-2,2,2-trifluoro-1-methyl-ethoxy)-phenyl]-methanone]"
20,0.045,"Cc1nc2c(cc1C(F)(F)F)CN(C(=O)c1cc(S(C)(=O)=O)ccc1O[C@@H](C)C(F)(F)F)C2 [Example 163, [5-Methanesulfonyl-2-((S)-2,2,2-trifluoro-1-methyl-ethoxy)-phenyl]-(2-methyl-3-trifluoromethyl-5,7-dihydro-pyrrolo[3,4-b]pyridin-6-yl)-methanone]"
21,0.032,"C[C@H](Oc1ccc(S(C)(=O)=O)cc1C(=O)N1Cc2ccc(C3CCCOC3)cc2C1)C(F)(F)F (mixture of isomers) [Example 312, [5-Methanesulfonyl-2-((S)-2,2,2-trifluoro-1-methyl-ethoxy)-phenyl]-[5-(tetrahydro-pyran-3-yl)-1,3-dihydro-isoindol-2-yl]-methanone]"
22,0.017,"CS(=O)(=O)c1ccc(-c2cccc(F)c2)c(C(=O)N2Cc3cc(Cl)c(N4CCOCC4)cc3C2)c1 [Example 255, (5-Chloro-6-morpho-lin-4-yl-1,3-dihydro-isoindol-2-yl)-(3′-fluoro-4-methane-sulfonyl-biphenyl-2-yl)-methanone]"

row,Structure (SMILES),IC50 [µM]
1,"CC(C)COc1ccc(S(C)(=O)=O)cc1C(=O)N1Cc2ccc(C3CCOCC3)cc2C1 [Example 270, (2-Isobutoxy-5-methanesulfonyl-phenyl)-[5-(tetrahydro-pyran-4-yl)-1,3-dihydro-isoindol-2-yl]-methanone]",0.035
2,"CC(C)COc1ccc(S(C)(=O)=O)cc1C(=O)N1Cc2cc(C(F)(F)F)cnc2C1 [Example 125, (2-Isobutoxy-5-methanesulfonyl-phenyl)-(3-trifluoromethyl-5,7-dihydro-pyrrolo[3,4-b]pyridin-6-yl)-methanone]",0.03
3,"CS(=O)(=O)c1ccc(OCC(F)(F)C(F)(F)F)c(C(=O)N2Cc3cc(Cl)c(N4C5CCC4COC5)cc3C2)c1 [Example 363, [5-Chloro-6-(3-oxa-8-aza-bicyclo[3.2.1]oct-8-yl)-1,3-dihydro-isoindol-2-yl]-[5-methanesulfonyl-2-(2,2,3,3,3-pentafluoro-propoxy)-phenyl]-methanone]",0.004

# Source: patent publication US8188139B2, “Heterocyclic-substituted phenyl methanones” (Hoffman-La Roche Inc., priority 2005, dated 2012)
